Like-named read-outs stand apart in the source and are kept apart here.
Columns and labels:
K562-CD123 target cells = assay: Antigen-specific cytotoxicity of lentivirus-transduced T cells against 50:50 K562-CD19/K562-CD123; type: cell-based, human; details: sample containing rapamycin; T:K562 5:1
Source text: The DARIC system was extended to an additional model antigen to show the broad applicability of artificial cells expressing drug regulated multipartite receptors templated herein. K562 target cell lines were generated to express the CD123 antigen by sub-cloning this antigen into a lentiviral vector comprising a puromycin selection cassette (SEQ ID NO.:74), lentiviral particles were produced, and K562 cells were infected and selected with puromycin.

K562-CD19 cells = details: for cytotoxicity responses on titration of bridging factor: DARIC expressing T cells, broad range of drug concentrations
Method: The transduced T cells were then co-incubated with about a 50:50 mixture of the K562 target cells expressing either CD19 (K562-CD19) or CD20 (K562-CD20) to evaluate antigen-specific cytotoxicity. […] The DARIC antigen binding component includes a CD19 antigen binding scFv domain and a FKBP12 multimerization domain, which was linked to a mCherry fluorescent protein.
A series of additional DARIC molecules, in which the antigen binding component was maintained on the T cell surface rather than released into the extracellular space, were tested (see, e.g., FIG. 1I). Several protein regions and transmembrane domains were used to anchor the binding domain to the T cell surface (SEQ ID NOS.:50, 53, 56, 59), each altering the spacing or steric parameters governing multimerization of the DARIC binding and signaling components.
Deactivation of the DARIC system by the addition of a pharmacological agent that competes for binding to one of the multimerization domains was tested. Primary human T cells expressing either a traditional CD19 targeting CAR or primary human T cells expressing the CD19 targeting DARIC components (SEQ ID NO.:66) were co-incubated with 50:50 mixtures of K562-CD19 and K562-CD20 cells.

K562-CD19 target cells = assay: Cytotoxicity of IVT-mRNA electroporated T cells encoding DARIC components against K562-CD19/K562-CD20 mixture (flow cytometry); type: cell-based, human
Method: Recombinant T cells expressing the two DARIC components were incubated with K562 target cells (a human myeloid leukemia cell line), which were modified to express either CD19 or CD20 antigen, to examine target cell lysis. Briefly, T cells were co-incubated with a 50:50 mixture of K562-CD19 and K562-CD20 target cell lines, at 3:1 or 10:1 T cell to target cell ratios. […] The relative percentage of each of the target cell lines was monitored by flow cytometry staining for the CD19 and CD20 antigens to evaluate cell lysis (see FIG. 3).
Four samples of primary human T cells were prepared by electroporation with IVT-mRNA encoding (i) an extensively validated single-chain chimeric antigen receptor (CAR) (CD19-CAR, SEQ ID NO.:14, positive control); (ii) the DARIC signaling component only (DSC, SEQ ID NO.:16, negative control); iii) the DARIC binding component only (DBC-CD19, SEQ ID NO.:2, negative control); and (iv) both DARIC binding and signaling components (DSC, SEQ ID NO.:16 plus DBC-CD19, SEQ ID NO.:2). The relative percentages of each of the target cell lines were monitored by flow cytometry staining for the CD19 and CD20 antigens (FIG. 3A).
The percent specific cytotoxicity was calculated for each condition as the percentage change relative the input K562-CD19:K562-CD20 ratio.

[1] = system: CD19 expressing K562 target cells; assay: Cytokine secretion of T cells encoding DARIC components co-incubated with K562 target cells (Cytokine Bead Array); type: cell-based, human
Method: Recombinant T cells expressing the two DARIC components were incubated with K562 target cells (a human myeloid leukemia cell line), which were modified to express either CD19 or CD20 antigen, to examine cytokine expression. […] Supernatants were isolated for analysis of cytokine production (see FIG. 4).
Two samples of primary human T cells were isolated, expanded, and then prepared by electroporation with IVT-mRNA encoding either (i) the validated single-chain CAR (CD19-CAR, SEQ ID NO.:[…], positive control); or (ii) both DARIC binding and signaling components (DSC, SEQ ID NO.:16 plus DBC-CD19, SEQ ID NO.:2). […] The supernatants were then collected and assayed for analyte concentrations using cytokine capture antibody-labeled beads (Becton Dickenson Cytokine Bead Array, human Th1/Th2 kit). Comparison with recombinant protein standards enabled calculation of absolute concentrations of each of the six cytokines encompassed by the bead array.

[2] = T cells expressing DARIC components (DSC plus DBC-CD19), 500 nM AP21967, 1:1

## SS-DmrC-CD8TM-41BB-CD3z-P2A-SS-CD123scFv-DmrA-CD4TM protein [CD123 DARIC]
K562-CD123 target cells
  cytotoxicity: Cytotoxicity was observed

## CO[C@H]1C[C@@H]2CC[C@@H](C)[C@@](O)(O2)C(=O)C(=O)N2CCCC[C@H]2C(=O)O[C@H]([C@H](C)C[C@@H]2CC[C@@H](O)[C@H](OC)C2)CC(=O)[C@H](C)/C=C(\C)[C@@H](O)[C@@H](OC)C(=O)[C@H](C)C[C@H](C)/C=C/C=C/C=C/1C [rapamycin]
K562-CD19 cells; T:K562 5:1
  cytotoxicity responses on titration of bridging factor: maintained to sub-nanomolar drug concentrations
K562-CD19 cells; mixed T cell populations, one expressing DARIC antigen binding component, the other DARIC signaling component
  cytotoxicity response: cytotoxicity response against K562-CD19 cells
K562-CD19 cells; swapped DARIC: binding component DmrC, signaling component DmrA (SEQ ID NOs.:12, 31), samples containing rapamycin
  antigen specific cytotoxicity: Antigen specific cytotoxicity was observed

## C=CC[C@@H]1/C=C(\C)C[C@H](C)C[C@H](OC)[C@H]2O[C@@](O)(C(=O)C(=O)N3CCCC[C@H]3C(=O)O[C@H](/C(C)=C/[C@@H]3CC[C@@H](O)[C@H](OC)C3)[C@H](C)[C@@H](O)CC1=O)[C@H](C)C[C@@H]2OC [FK506]
K562-CD19 cells; CD19 targeting CAR T cells
  change in antigen specific cytotoxicity on addition of anti-bridging factor: minimal reduction
K562-CD19 cells; CD19 targeting DARIC T cells with rapamycin
  change in antigen specific cytotoxicity on addition of anti-bridging factor: marked reduction

## SS-FRB(T2098L)-TM-41BB-CD3z mRNA [DARIC signaling component]
K562-CD19 target cells; primary human T cells electroporated with IVT-mRNA, 50:50 K562-CD19/K562-CD20, 3:1 or 10:1 T cell to target cell ratio
  specific cytotoxicity: no significant cytotoxicity

## CO[C@H]1[C@@H](O)[C@H](C)C[C@H](C)/C=C/C=C/C=C(\C)[C@@H](c2c[nH]c3c(C)cccc23)C[C@@H]2CC[C@@H](C)[C@@](O)(O2)C(=O)C(=O)N2CCCC[C@H]2C(=O)O[C@H]([C@H](C)C[C@@H]2CC[C@@H](O)[C@H](OC)C2)C[C@H](O)[C@H](C)/C=C(\C)[C@H]1O [AP21967, C-16-(S)-7-methylindolerapamycin]
K562-CD19 target cells; T cells expressing both DARIC components (DSC plus DBC-CD19), 500 nM AP21967
  specific cytotoxicity: substantial specific cytoxicity
[1]; [2]
  IFNγ production: equivalent, or superior, to the single chain CD19-CAR positive control
  IL-2 production: equivalent, or superior, to the single chain CD19-CAR positive control
K562-CD19 cells; T cells with DARIC signaling component FRB (2021-2113) T2098L, T:K562 5:1, rapamycin 10 nM or AP21967 100 nM
  elimination of CD19 expressing K562 cells: elimination of the CD19 expressing K562 cells
K562-CD19 cells; T cells with DARIC signaling component FRB dimerization domain, T:K562 5:1, rapamycin 10 nM or AP21967 100 nM
  elimination of K562-CD19 cells: no effect on cell survival

## CO[C@H]1C[C@@H]2CC[C@@H](C)[C@@](O)(O2)C(=O)C(=O)N2CCCC[C@H]2C(=O)O[C@H]([C@H](C)C[C@@H]2CC[C@@H](OCCO)[C@H](OC)C2)CC(=O)[C@H](C)/C=C(\C)[C@@H](O)[C@@H](OC)C(=O)[C@H](C)C[C@H](C)/C=C/C=C/C=C/1C [everolimus]
K562-CD19 cells; T:K562 5:1
  cytotoxicity responses on titration of bridging factor: maintained to sub-nanomolar drug concentrations

## both DARIC components: T cells expressing both DARIC binding and signaling components
K562-CD19 target cells; T cells expressing both DARIC components, without addition of AP21967
  specific cytotoxicity: no significant cytotoxicity
[1]; T cells expressing DARIC components, absence of bridging factor AP21967
  cytokine production: no significant cytokine production

Reference: patent US11530265B2, “Multipartite signaling proteins and uses thereof” (2seventy bio, Inc., priority 2013, dated 2022)
